Measurements taken from patent US20240279176A1, “SUBSTITUTED TRICYCLIC HETEROCYCLIC COMPOUNDS AS METALLO-BETA-LACTAMASE INHIBITORS” (priority 2021, published 2024).
Read-outs that look alike come from different tables or passages of the source.

Legend:
IMP-1 = IMP-1 (Serratia marcescens, UniProt P52699); experiment: Enzyme activity: IC50 in fluorescence assay with cephalosporin substrate FC5; format: biochemical; settings: 100 pM IMP-1, 10 μM FC5, 10 min pre-incubation
Protocol: (§1) The Class B beta-lactamases activities were measured in the presence of the test inhibitors in a fluorescence assay against an in-house synthesized fluorescent cephalosporin substrate FC5 (Berkel, et. al. J. Med. Chem. 2013, 56(17), 6945). The enzymes (NDM-1, IMP-1) and the substrate were diluted in 20 mM HEPES, pH 7.4, supplemented with 300 mM NaCl and 10 μM ZnSO4. In the assay, the final concentration of enzyme was 50 pM, and 100 pM for NDM-1, and IMP-1 respectively, and the final concentration of FC5 was 1.5 μM for NDM-1 and 10 μM for IMP-1. The test inhibitors/compounds were dissolved in dimethylsulfoxide (DMSO) and diluted in the assay with assay buffer (20 mM HEPES, pH 7.4, supplemented with 5% DMSO, 300 mM NaCl and 10 μM ZnSO4), resulting in a final concentration range of 0.008 μM to 25 μM. The assays were performed in 96-well microplate (flat bottom, black). The test inhibitors were incubated with the MBL enzyme for 10 min at room temperature, followed by addition the substrate and the fluorescence was recorded immediately (λex 380 nm, λem 460 nm) on a microplate reader. Using the initial velocity data plotted against the inhibitor concentration, the half-maximal inhibitory concentrations were calculated by an IC50 curve-fitting model in GraphPad Prism 9 software.

NDM-1 = NDM-1 (Klebsiella pneumoniae, UniProt C7C422); experiment: as above; format: biochemical; settings: 50 pM NDM-1, 1.5 μM FC5, 10 min pre-incubation
Protocol: as §1

[1] = tested on: Klebsiella pneumoniae ATCC BAA-2146; experiment: Minimum inhibitory concentration (MIC), broth-microdilution (CLSI); format: cell-based; settings: ATCCBAA2146, compound alone, K. pneumoniae ATCC BAA-2146, read-out: Intrinsic MIC
From the text: (§2) The strain included in the study was Klebsiella pneumoniae ATCC BAA-2146 (Himedia®, India) with presence of New Delhi metallo-β-lactamase (NDM-1) gene. The quality control reference strains Escherichia coli ATCC 25922 and Pseudomonas aeruginosa ATCC 27853 were procured from Himedia®, India.
MIC values were identified through broth-microdilution in sterilized 96-well polystyrene flat-bottom microtitre plates (Cole-Parmer®) according to the guideline of the Clinical and Laboratory Standards Institute (CLSI) (CLSI; Methods for dilution antimicrobial susceptibility tests for bacteria that grow aerobically; Clinical Laboratory Standards Institute, M07-A09, 2012). This method involves the use of BBL™ Cation-adjusted Mueller-Hinton II Broth (CA-MHB; BD) and the strain (Klebsiella pneumoniae ATCC BAA-2146) concentration was adjusted to 5×10^5 CFU/mL. After 16-18 h of incubation at various concentrations of Imipenem, Meropenem (Alfa Aesar), or test compounds at 37° C., MIC was defined as the lowest concentration of antibiotic or test compound with no visible growth.

[2] = tested on: Klebsiella pneumoniae ATCC BAA-2146; experiment: Checkerboard synergy assay in combination with Imipenem; format: cell-based; settings: K. pneumoniae ATCC BAA-2146; for Fold reduction in Imipenem MIC in the presence of compounds (μg/mL) 4: compound at 4 μg/mL; for Fold reduction in Imipenem MIC in the presence of compounds (μg/mL) 8: compound at 8 μg/mL; for Fold reduction in Imipenem MIC in the presence of compounds (μg/mL) 16: compound at 16 μg/mL; for Fold reduction in Imipenem MIC in the presence of compounds (μg/mL) 32: compound at 32 μg/mL
From the text: as §2
(§3) The fold modulation activity of test compounds, in combination with Imipenem or Meropenem, was checked against Klebsiella pneumoniae ATCC BAA-2146 strain by the broth-microdilution checkerboard synergy assay. The plates contained 5×10^5 CFU/mL bacterial inocula and 2-fold serial dilutions of the antibiotics (128-2 μg/mL) as well as test compounds (32-4 μg/mL) in a total volume of 200 μL of CA-MHB. Dimethyl sulfoxide (DMSO, ≤2.5%) was included as vehicle control. Following 16-18 h of incubation at 37° C., the MICs of antibiotics as well as drug combinations were visually inspected.

[3] = tested on: Klebsiella pneumoniae ATCC BAA-2146; experiment: Checkerboard synergy assay in combination with Meropenem; format: cell-based; settings: K. pneumoniae ATCC BAA-2146; for Fold reduction in meropenem MIC in the presence of compounds (μg/mL) 4: compound at 4 μg/mL; for Fold reduction in meropenem MIC in the presence of compounds (μg/mL) 8: compound at 8 μg/mL; for Fold reduction in meropenem MIC in the presence of compounds (μg/mL) 16: compound at 16 μg/mL; for Fold reduction in meropenem MIC in the presence of compounds (μg/mL) 32: compound at 32 μg/mL
From the text: as §2, §3

IMP-1, sequence (P52699 19-246, looked up, species assumed): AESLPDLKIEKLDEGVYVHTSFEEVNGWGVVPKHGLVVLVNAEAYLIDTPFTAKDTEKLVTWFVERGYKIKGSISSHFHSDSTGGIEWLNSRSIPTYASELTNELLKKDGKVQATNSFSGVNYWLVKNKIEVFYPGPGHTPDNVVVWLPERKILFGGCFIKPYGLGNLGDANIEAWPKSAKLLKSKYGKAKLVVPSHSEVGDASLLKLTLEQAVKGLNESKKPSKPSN
NDM-1, sequence (C7C422 29-270, looked up): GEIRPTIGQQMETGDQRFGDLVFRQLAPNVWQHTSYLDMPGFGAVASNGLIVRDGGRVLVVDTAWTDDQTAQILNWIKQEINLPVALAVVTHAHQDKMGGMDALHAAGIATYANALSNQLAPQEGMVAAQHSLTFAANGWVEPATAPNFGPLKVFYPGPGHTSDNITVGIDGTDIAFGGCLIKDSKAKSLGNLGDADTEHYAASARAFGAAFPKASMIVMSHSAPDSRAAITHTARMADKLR

For `O=C(O)c1[nH]c2c(c1-c1ccc(Cl)cc1)CCc1ccccc1-2` [Example 43, 3-(4-chlorophenyl)-4,5-dihydro-1H-benzo[g]indole-2-carboxylic Acid], the IC50 (IMP-1) was 1.48 µM, the IC50 (NDM-1) was 0.007 µM and the MIC ([1]; Imipenem series) was greater than 128 µg/mL. The MIC ([1]; meropenem series) was greater than 128 µg/mL, the “Fold reduction in Imipenem MIC in the presence of compounds (μg/mL) 4” value (“Fold reduction in Imipenem MIC … (μg/mL) 4” below) [2] was 4 fold and the “Fold reduction in Imipenem MIC in the presence of compounds (μg/mL) 8” value (“Fold reduction in Imipenem MIC … (μg/mL) 8” below) [2] was 4 fold. The “Fold reduction in Imipenem MIC in the presence of compounds (μg/mL) 16” value (“Fold reduction in Imipenem MIC … (μg/mL) 16” below) [2] was 4 fold, the “Fold reduction in Imipenem MIC in the presence of compounds (μg/mL) 32” value (“Fold reduction in Imipenem MIC … (μg/mL) 32” for short) [2] was 8 fold and the “Fold reduction in meropenem MIC in the presence of compounds (μg/mL) 4” value (from here on “Fold reduction in meropenem MIC … (μg/mL) 4”) [3] was 4 fold. The “Fold reduction in meropenem MIC in the presence of compounds (μg/mL) 8” value (from here on “Fold reduction in meropenem MIC … (μg/mL) 8”) [3] was 4 fold, the “Fold reduction in meropenem MIC in the presence of compounds (μg/mL) 16” value (from here on “Fold reduction in meropenem MIC … (μg/mL) 16”) [3] was 4 fold and the “Fold reduction in meropenem MIC in the presence of compounds (μg/mL) 32” value (shortened to “Fold reduction in meropenem MIC … (μg/mL) 32”) [3] was 4 fold.

Molecule `O=C(O)c1[nH]c2c(c1-c1ccccc1Cl)CCc1ccccc1-2` [Example 44, 3-(2-chlorophenyl)-4,5-dihydro-1H-benzo[g]indole-2-carboxylic Acid] has an IC50 (IMP-1) of 1.1 µM, an IC50 (NDM-1) of 0.019 µM and an MIC ([1]; Imipenem series) greater than 128 µg/mL. The MIC ([1]; meropenem series) was greater than 128 µg/mL, the “Fold reduction in Imipenem MIC … (μg/mL) 4” value [2] was 4 fold and the “Fold reduction in Imipenem MIC … (μg/mL) 8” value [2] was 4 fold. The “Fold reduction in Imipenem MIC … (μg/mL) 16” value [2] was 4 fold, the “Fold reduction in Imipenem MIC … (μg/mL) 32” value [2] was 4 fold and the “Fold reduction in meropenem MIC … (μg/mL) 4” value [3] was 4 fold. For the same molecule, the “Fold reduction in meropenem MIC … (μg/mL) 8” value [3] was 4 fold, the “Fold reduction in meropenem MIC … (μg/mL) 16” value [3] was 4 fold and the “Fold reduction in meropenem MIC … (μg/mL) 32” value [3] was 4 fold.

Molecule `O=C(O)c1[nH]c2c(c1-c1ccc(Cl)cc1Cl)CCc1ccccc1-2` [Example 46, 3-(2,4-dichlorophenyl)-4,5-dihydro-1H-benzo[g]indole-2-carboxylic acid] has an IC50 (IMP-1) of 10.4 µM, an IC50 (NDM-1) of 0.306 µM and an MIC ([1]; Imipenem series) greater than 128 µg/mL. For the same molecule, the MIC ([1]; meropenem series) was greater than 128 µg/mL, the “Fold reduction in Imipenem MIC … (μg/mL) 4” value [2] was 4 fold and the “Fold reduction in Imipenem MIC … (μg/mL) 8” value [2] was 4 fold. For the same molecule, the “Fold reduction in Imipenem MIC … (μg/mL) 16” value [2] was 8 fold, the “Fold reduction in Imipenem MIC … (μg/mL) 32” value [2] was 16 fold and the “Fold reduction in meropenem MIC … (μg/mL) 4” value [3] was 4 fold. For the same molecule, the “Fold reduction in meropenem MIC … (μg/mL) 8” value [3] was 4 fold, the “Fold reduction in meropenem MIC … (μg/mL) 16” value [3] was 8 fold and the “Fold reduction in meropenem MIC … (μg/mL) 32” value [3] was 16 fold.

Work on `O=C(O)c1[nH]c2c(c1-c1cccc(F)c1F)CCc1ccccc1-2` [Example 47, 3-(2,3-difluorophenyl)-4,5-dihydro-1H-benzo[g]indole-2-carboxylic Acid] yielded an IC50 (IMP-1) of 3.3 µM, an IC50 (NDM-1) of 0.323 µM and an MIC ([1]; Imipenem series) greater than 128 µg/mL. The MIC ([1]; meropenem series) was greater than 128 µg/mL, the “Fold reduction in Imipenem MIC … (μg/mL) 4” value [2] was 2 fold and the “Fold reduction in Imipenem MIC … (μg/mL) 8” value [2] was 4 fold. For the same molecule, the “Fold reduction in Imipenem MIC … (μg/mL) 16” value [2] was 4 fold, the “Fold reduction in Imipenem MIC … (μg/mL) 32” value [2] was 8 fold and the “Fold reduction in meropenem MIC … (μg/mL) 4” value [3] was 2 fold. The “Fold reduction in meropenem MIC … (μg/mL) 8” value [3] was 4 fold, the “Fold reduction in meropenem MIC … (μg/mL) 16” value [3] was 4 fold and the “Fold reduction in meropenem MIC … (μg/mL) 32” value [3] was 4 fold.
